In paper PMC2922422 (Neuropsychopharmacology : official publication of the …, 2010):
Where a name gives a salt, the structure may show the parent alone.

How the values were obtained:
[1] = plasma pharmacokinetics after i.p. administration; type: in vivo; settings: rat, mean ± SD
[2] = brain and plasma levels 1 h after administration; type: in vivo; settings: rat, geometric mean (lower – upper limits)
Wistar rats [3] = assay: cue-induced reinstatement of cocaine-seeking behavior
Wistar rats [4] = assay: cue-induced reinstatement of food-seeking behavior; settings: food-responding rats; 10, 20, 40 mg/kg i.p., between-subjects
Wistar rats [5] = assay: intracranial self-stimulation; type: in vivo, rat
Wistar rats [6] = assay: food-maintained responding; settings: food-restricted rats, 1 h session
Wistar rats [7] = assay: intravenous cocaine self-administration, short; settings: for inactive lever presses: cocaine self-administration; for cocaine self-administration (infusions earned, % of baseline): 30 min pretreatment, vs vehicle
rat mGluR3 = rat mGluR3 (Rattus norvegicus, UniProt P31422); assay: thallium flux assay, mGluR3 GIRK HEK-293 cells; type: cell-based; settings: in presence of EC20 glutamate
Sequence of rat mGluR3 (P31422 23-879): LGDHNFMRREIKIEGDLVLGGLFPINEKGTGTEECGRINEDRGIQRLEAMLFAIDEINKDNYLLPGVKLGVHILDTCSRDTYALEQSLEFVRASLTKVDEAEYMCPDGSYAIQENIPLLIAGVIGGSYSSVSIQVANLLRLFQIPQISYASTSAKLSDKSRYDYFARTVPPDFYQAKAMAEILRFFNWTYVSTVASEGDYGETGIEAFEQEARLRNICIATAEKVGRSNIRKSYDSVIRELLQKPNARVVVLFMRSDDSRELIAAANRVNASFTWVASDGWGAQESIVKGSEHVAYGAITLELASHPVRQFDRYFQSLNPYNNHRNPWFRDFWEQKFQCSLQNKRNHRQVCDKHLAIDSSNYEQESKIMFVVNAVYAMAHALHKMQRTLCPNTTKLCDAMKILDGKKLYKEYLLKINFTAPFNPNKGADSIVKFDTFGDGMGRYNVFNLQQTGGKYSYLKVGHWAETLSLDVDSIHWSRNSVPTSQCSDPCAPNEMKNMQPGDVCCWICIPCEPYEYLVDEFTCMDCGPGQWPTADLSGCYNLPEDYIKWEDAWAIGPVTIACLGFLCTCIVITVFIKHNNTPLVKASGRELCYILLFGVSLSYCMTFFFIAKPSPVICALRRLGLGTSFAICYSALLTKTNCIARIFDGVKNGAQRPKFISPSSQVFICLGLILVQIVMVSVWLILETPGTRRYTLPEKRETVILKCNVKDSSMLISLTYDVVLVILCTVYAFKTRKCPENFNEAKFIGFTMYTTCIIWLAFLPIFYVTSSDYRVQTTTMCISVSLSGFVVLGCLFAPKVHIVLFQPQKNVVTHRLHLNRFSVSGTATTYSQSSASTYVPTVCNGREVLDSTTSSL

ShA rats = settings: 3 mg/kg, ref Baptista et al 2004; cited from earlier work

Question: Which results are given for `Cc1c(OCc2cccc(-c3ccc(C(=O)[O-])cc3)c2)cc2c(c1C)C(=O)C(C1CCCC1)C2.[K+]` (centres unmarked) [BINA, potassium 3′-([2-cyclopentyl-6-7-dimethyl-1-oxo-2,3-dihydro-1H-inden-5yloxy]methyl)biphenyll-4-carboxylate]?
Answer: AUC ([1]; 20 mg/kg i.p.): 31 ± 5.0 h μM/L; Cmax ([1]; 20 mg/kg i.p.): 9.3 ± 2.7 µM; Vd ([1]; 20 mg/kg i.p.): 5.9 ± 2.6 L/kg; AUC ([1]; 40 mg/kg i.p.): 114 ± 42 h μM/L; Cmax ([1]; 40 mg/kg i.p.): 31 ± 14 µM; Vd ([1]; 40 mg/kg i.p.): 1.7 ± 0.68 L/kg; Brain level (mean) ([2]; 20 mg/kg): 2.78 (0.65 – 6.39) μM; Plasma level (mean) ([2]; 20 mg/kg): 10.54 (0.79 – 25.48) μM; Brain level (mean) ([2]; 40 mg/kg): 2.30 (0.62 – 5.54) μM; Plasma level (mean) ([2]; 40 mg/kg): 7.79 (0.81 – 16.98) μM; active lever presses in reinstatement sessions (Wistar rats [3]; non-reinstated sub-groups of ShA and LgA rats (median split), 10-40 mg/kg i.p.): no effect of BINA treatment; cue-induced reinstatement of cocaine-seeking behavior (Wistar rats [3]; three ShA rats reinstating by predefined criterion): tended to reduce cue-induced reinstatement; cue-induced food seeking (active lever presses) (Wistar rats [4]): no effect on the number of active lever presses; cocaine-induced decrease in ICSS response latencies (Wistar rats [5]; 20 mg/kg i.p. combined with cocaine 10 mg/kg i.p.): reversed the cocaine-induced decrease in response latencies; ICSS response latencies (Wistar rats [5]; 40 mg/kg i.p. vs vehicle): significantly increased; cocaine-induced ICSS threshold lowering (Wistar rats [5]; 20 and 40 mg/kg i.p. combined with cocaine 10 mg/kg i.p.): attenuated cocaine-induced threshold lowering; ICSS reward thresholds (Wistar rats [5]; administered alone, 20 and 40 mg/kg i.p.): significantly elevated reward thresholds; food-maintained responding (Wistar rats [6]; 10, 20, 40 mg/kg i.p.): no effect on food responding; inactive lever presses (Wistar rats [7]; 10, 20, 40 mg/kg i.p.): no effect on inactive lever presses; potentiation of the glutamate EC20 response (rat mGluR3): inactive

Question: Which ICSS reward thresholds (Wistar rats [5]; 10 mg/kg i.p., co-administered with vehicle or 10 mg/kg BINA) does the source give for `COC(=O)[C@H]1[C@@H](OC(=O)c2ccccc2)C[C@@H]2CC[C@H]1N2C` [Cocaine, Cocaine hydrochloride, reference compound] here?
Answer: Its ICSS reward thresholds is “significantly lowered ICSS thresholds”.

Question: Which cocaine self-administration (ShA rats) does the source give for `N[C@@]1(C(=O)O)CO[C@H]2[C@H](C(=O)O)[C@H]21` [LY379268, [−]-2-oxa-4-aminobicyclo[3.1.0]hexane-4,6-dicarboxylate] here?
Answer: Its cocaine self-administration is “decreased cocaine self-administration”.

Question: What about the food-maintained responding (Wistar rats [6]; 6 mg/kg) of the same compound?
Answer: Its food-maintained responding is “significantly decreased food responding”.

Question: What about the “cocaine self-administration (infusions earned, % of baseline)” value (Wistar rats [7]; LgA rats, 6 h session and first hour, 6 mg/kg) of the same compound?
Answer: Its value is “significant decrease in cocaine intake”.

Question: What about the “cocaine self-administration (infusions earned, % of baseline)” value (Wistar rats [7]; ShA rats, 1 h session, 3 and 6 mg/kg) of the same compound?
Answer: The value was “significant decrease in cocaine intake”.

Question: What about the inactive lever presses (Wistar rats [7]; 0.3, 1, 3, 6 mg/kg) of the same compound?
Answer: Its inactive lever presses is “no effect on inactive lever presses”.
